Experimental data reported in ChEMBL document CHEMBL1201862, “PubChem BioAssay data set” (2004).
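Cultured in 96-well plates, cells were exposed to test compound for 48 hours across five concentrations. GI50: concentration for 50% inhibition of growth.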 The source made the active and inactive calls. Rule as the data show it: active = GI50 up to about 1.1 µM and inactive = higher.

What was measured:
Assay in all cases: NCI-60 cell line screen, 48 h
OVCAR-4 = tested on: OVCAR-4
SK-MEL-5 = tested on: SK-MEL-5
SF-295 = tested on: SF-295
NCI-H460 = tested on: NCI-H460
SF-268 = tested on: SF-268
KM-20L2 = tested on: KM-20L2
SNB-78 = tested on: SNB-78
RXF 393 = tested on: RXF 393
SK-MEL-2 = tested on: SK-MEL-2
K562 = tested on: K562
DMS-114 = tested on: DMS-114
SK-MEL-28 = tested on: SK-MEL-28
KM12 = tested on: KM12
ACHN = tested on: ACHN
NCI-H23 = tested on: NCI-H23
M19-MEL = tested on: M19-MEL
HCC 2998 = tested on: HCC 2998
HOP-62 = tested on: HOP-62
IGROV-1 = tested on: IGROV-1

Measured: GI50

CCCN(CCC)C(=O)Cc1c2n(c3ccccc13)Cc1ccccc1-2
inactive: OVCAR-4 49.5 µM | SK-MEL-5 29.6 µM | SF-295 33.8 µM | NCI-H460 63.7 µM | SF-268 > 100 µM | KM-20L2 > 100 µM | SNB-78 > 100 µM | RXF 393 24.4 µM | SK-MEL-2 94.4 µM | K562 > 100 µM | DMS-114 23.6 µM | SK-MEL-28 > 100 µM | KM12 > 100 µM | ACHN 12 µM | NCI-H23 45.7 µM | M19-MEL 56.6 µM | HCC 2998 > 100 µM | HOP-62 > 100 µM

COc1ccc(NC(=O)/C(=C/c2ccccc2)C(C)=O)cc1
inactive: OVCAR-4 11.6 µM | SK-MEL-5 13.9 µM | SF-295 14.2 µM | IGROV-1 17.5 µM | NCI-H460 21.6 µM | SF-268 15.2 µM | KM-20L2 14.3 µM | SNB-78 15.5 µM | SK-MEL-2 14.6 µM | K562 12.5 µM | DMS-114 15.2 µM | SK-MEL-28 12.9 µM | KM12 12.4 µM | ACHN 20.7 µM | NCI-H23 > 10 µM | M19-MEL 14.3 µM | HCC 2998 18.9 µM | HOP-62 18 µM

CC(=O)Nc1[nH]n(C)c(=O)c1-c1nnc(C)s1
inactive: OVCAR-4 > 100 µM | SK-MEL-5 > 100 µM | IGROV-1 > 100 µM | NCI-H460 > 100 µM | SF-268 > 100 µM | KM-20L2 > 100 µM | SNB-78 > 100 µM | RXF 393 > 100 µM | SK-MEL-2 > 100 µM | K562 > 100 µM | DMS-114 > 100 µM | SK-MEL-28 > 100 µM | KM12 > 100 µM | ACHN > 100 µM | NCI-H23 > 100 µM | HCC 2998 > 100 µM | HOP-62 > 100 µM

O=C(Nc1ccc([N+](=O)[O-])cc1[N+](=O)[O-])C(=O)C(C(=O)c1ccc(Cl)c(Cl)c1)C1OC(=O)c2ccccc21 (centres undefined)
inactive: OVCAR-4 42.9 µM | SF-295 17.8 µM | IGROV-1 22.2 µM | NCI-H460 > 10 µM | SF-268 25.3 µM | KM-20L2 29.8 µM | SNB-78 21.9 µM | RXF 393 11.8 µM | SK-MEL-2 > 10 µM | K562 28.4 µM | DMS-114 18.1 µM | KM12 18.4 µM | ACHN 23.3 µM | NCI-H23 17.3 µM | M19-MEL 25.1 µM | HCC 2998 > 10 µM | HOP-62 16.7 µM

COc1ccc([N+]2=NC(c3ccc([N+](=O)[O-])cc3)=NN(c3ccccc3)C2)cc1
inactive: OVCAR-4 22.6 µM | SK-MEL-5 21 µM | SF-295 > 10 µM | IGROV-1 39 µM | NCI-H460 25.9 µM | SF-268 97.7 µM | KM-20L2 49.4 µM | SNB-78 > 100 µM | RXF 393 > 100 µM | K562 21 µM | DMS-114 40.1 µM | SK-MEL-28 70.8 µM | ACHN 42.5 µM | NCI-H23 55.8 µM | HCC 2998 > 100 µM | HOP-62 > 100 µM

CC12CC(=O)NN=C1c1ccccc1C2 (centres undefined)
inactive: SK-MEL-5 > 100 µM | SF-295 > 100 µM | IGROV-1 > 100 µM | NCI-H460 > 100 µM | SF-268 > 100 µM | KM-20L2 > 100 µM | SNB-78 > 100 µM | RXF 393 > 100 µM | SK-MEL-2 > 100 µM | K562 > 100 µM | DMS-114 > 100 µM | SK-MEL-28 > 100 µM | KM12 > 100 µM | ACHN > 100 µM | NCI-H23 > 100 µM | M19-MEL > 100 µM | HCC 2998 > 100 µM | HOP-62 > 100 µM

N=C(N)NS(=O)(=O)c1ccc(NC(=O)c2cccc3cc4ccccc4nc23)cc1
inactive: OVCAR-4 28 µM | SK-MEL-5 > 100 µM | SF-295 > 100 µM | IGROV-1 > 100 µM | NCI-H460 > 100 µM | SF-268 88.5 µM | KM-20L2 > 100 µM | SNB-78 40.6 µM | RXF 393 > 100 µM | SK-MEL-2 > 100 µM | K562 53 µM | DMS-114 97.5 µM | SK-MEL-28 > 100 µM | KM12 30.8 µM | ACHN 93.8 µM | NCI-H23 > 100 µM | M19-MEL > 100 µM | HOP-62 94.2 µM

COc1cc2cccc(/N=C\c3cccc(OC)c3OC(C)C)c2cc1OC
inactive: OVCAR-4 18.7 µM | SK-MEL-5 24.8 µM | SF-295 19 µM | IGROV-1 24 µM | NCI-H460 33.9 µM | SF-268 24.4 µM | KM-20L2 51.8 µM | SNB-78 44.7 µM | SK-MEL-2 18 µM | K562 15.6 µM | DMS-114 17 µM | SK-MEL-28 24.3 µM | KM12 19 µM | ACHN 36.6 µM | NCI-H23 23.4 µM | M19-MEL 21.3 µM | HCC 2998 35.9 µM | HOP-62 26.5 µM

C[N+]1(C)C[C@@H](O)C[C@@H]1C(=O)[O-] [BETONICINE]
inactive: OVCAR-4 > 100 µM | SF-295 > 100 µM | IGROV-1 > 100 µM | NCI-H460 > 100 µM | SF-268 > 100 µM | KM-20L2 > 100 µM | SNB-78 > 100 µM | RXF 393 > 100 µM | SK-MEL-2 > 100 µM | K562 > 100 µM | DMS-114 > 100 µM | SK-MEL-28 > 100 µM | KM12 > 100 µM | ACHN > 100 µM | NCI-H23 > 100 µM | M19-MEL > 100 µM | HCC 2998 > 100 µM | HOP-62 > 100 µM

CC1OC(OC2C(CO)OC(O[C@H]3CC[C@@]4(C)C(=CC[C@H]5[C@@H]6C[C@@H]7O[C@]8(CC[C@@H](C)CN8)[C@@H](C)[C@@H]7[C@@]6(C)CC[C@@H]54)C3)C(O)C2O)C(O)C(O)C1O (some centres undefined)
inactive: OVCAR-4 > 100 µM | SK-MEL-5 > 100 µM | SF-295 > 100 µM | IGROV-1 > 100 µM | NCI-H460 > 100 µM | SF-268 > 100 µM | KM-20L2 28.9 µM | SNB-78 > 100 µM | RXF 393 > 100 µM | SK-MEL-2 > 100 µM | K562 > 100 µM | DMS-114 > 100 µM | SK-MEL-28 31.8 µM | KM12 > 100 µM | ACHN > 100 µM | NCI-H23 > 100 µM | M19-MEL > 100 µM | HOP-62 > 100 µM

CCc1ccccc1NC(=O)c1cccc([N+](=O)[O-])c1O
inactive: OVCAR-4 16.7 µM | SK-MEL-5 8.89 µM | SF-295 5.18 µM | IGROV-1 23 µM | NCI-H460 20.8 µM | SF-268 25.2 µM | KM-20L2 24.7 µM | SNB-78 37.8 µM | RXF 393 8.51 µM | K562 40.4 µM | DMS-114 17.2 µM | SK-MEL-28 28.2 µM | KM12 18.1 µM | ACHN 18.1 µM | NCI-H23 18.7 µM | M19-MEL 23.6 µM | HCC 2998 24.7 µM | HOP-62 19 µM
